The values below come from US11059875B2, “Composition for preventing or treating cardiofaciocutaneous syndrome” (Korea Advanced Institute of Science and Technology, priority 2018, dated 2021).

Entries after “also recorded” stand apart in the source; their conditions may differ.

Common to all, as to type: cell-based, human
Series [1] has as its system osteoblasts differentiated from CFC-MSCs. The experiment in a line: Bone mineral deposition (alizarin red S and von Kossa staining) in osteoblasts differentiated from CFC-MSCs. As to conditions: treated on day 1 for 24 hours (U0126 5 μM, SB-431542 5 μM, BMP4 50 ng/ml), alizarin red S day 14, von Kossa day 21, FIG. 14. As to the method: (§1) To differentiate into osteoblasts, the MSCs were treated with 0.25% trypsin-EDTA at 37° C. for 2 minutes and separated from the culture dish. The cells were spread on a 4-well culture dish at the density of 2.5×10^4 cells/cm^2, which were cultured in MSC culture medium at 37° C. for 3 days until the cells were full. 3 days later, the medium was replaced with STEMPRO osteogenesis differentiation Medium (Invitrogen), and the medium was replaced every three days. The activity of ALP, which is an enzyme essential for the formation of hydroxyapatite, a major component of bone mineral, and an indicator of osteoblast differentiation, was investigated at 7 day intervals by using an ALP kit (Leucocyte Alkaline Phosphatase Kit, Sigma-Aldrich). […] The cells were washed with distilled water twice and the degree of color change into red was measured to investigate the calcium ion deposition.
(§2) Particularly, the differentiation of CFC-MSCs into osteoblasts was induced by the same manner as described in Experimental Example <2-2>. […] ALP enzyme activity was measured on the 7th day of the differentiation, and alizarin red S staining was performed on the 14th day of the differentiation by the same manner as described in Experimental Example <2-2>. […] After washing the cells with distilled water twice, the amount of calcium deposition was evaluated by the degree of darkening.

For series [2] the test system is unchanged. The experiment in a line: ALP enzyme activity (ALP kit staining) in osteoblasts differentiated from CFC-MSCs. Conditions: treated on day 1 for 24 hours (U0126 5 μM, SB-431542 5 μM, BMP4 50 ng/ml), measured on 7th day of differentiation, FIG. 13. As to the method: as §1, §2
In series [3] the test system is osteoblasts differentiated from CFC-iPSCs. Kind of series: Differentiation of CFC syndrome patient derived iPSCs into osteoblasts through mesenchymal stem cells. Conditions: CFC patient iPSC-derived cells; FIG. 13 to FIG. 15. From the text: […] The iPSCs derived from wild type (WT) individuals and the iPSCs derived from CFC syndrome patients were induced to be differentiated in vitro for about 30 days by referring to the protocol proposed in a previous paper (Mahmood, Harkness et al. 2010). Particularly, CFC-iPSC colony was divided into 4 to 9 sections (0.5 mm×0.5 mm/each section) by using a tissue chopper provided from Mickle Laboratory Engineering Co. The sections were treated with 10 mg/ml of dispase at 37° C. for 4 minutes and then the sections were detached from the cell culture dish. The separated cell sections were transferred in a Petri dish, followed by culture in EB medium (embryoid body differentiation medium), the Dulbecco's modified Eagle's medium (DMEM/F12) supplemented with 10% serum replacement (SR), 1% penicillin-streptomycin and 1% non-essential amino acids, for a day. […]
To differentiate into osteoblasts, the MSCs were treated with 0.25% trypsin-EDTA at 37° C. for 2 minutes and separated from the culture dish. […] The cells were washed with distilled water twice and the degree of color change into red was measured to investigate the calcium ion deposition. […]

With `NC(=O)c1ccc(-c2nc(-c3ccc4c(c3)OCO4)c(-c3ccccn3)[nH]2)cc1` [SB-431542], the bone mineral deposition result in series [1] is listed as “increase”. The ALP enzyme activity result in series [2] is on record as “increase”. For the same molecule, the “differentiation ability into osteoblasts” value in series [3] is “improved; also recorded: efficient in improving the differentiation ability”.

B1: BMP4: recombinant human bone morphogenic protein 4, BMP signaling pathway activator, SEQ. ID. NO: 13 (R&D systems) (protein, listed as Homo sapiens)
chain: MIPGNRMLMVVLLCQVLLGGASHASLIPETGKKKVAEIQGHAGGRRSGQSHELLRDFEATLLQMFGLRRRPQPSKSAVIPDYMRDLYRLQSGEEEEEQIHSTGLEYPERPASRANTVRSFHHEEHLENIPGTSENSAFRFLFNLSSIPENEVISSAELRLFREQVDQGPDWERGFHRINIYEVMKPPAEVVPGHLITRLLDTRLVHHNVTRWETFDVSPAVLRWTREKQPNYGLAIEVTHLHQTRTHQGQHVRISRSLPQGSGNWAQLRPLLVTFGHDGRGHALTRRRRAKRSPKHHSQRARKKNKNCRRHSLYVDFSDVGWNDWIVAPPGYQAFYCHGDCPFPLADHLNSTNHAIVQTLVNSVNSSIPKACCVPTELSAISMLYLDEYDKVVLKNYQEMVVEGCGCR
Take B1: the bone mineral deposition result in series [1] was “increase”. The ALP enzyme activity result in series [2] was “increase”. For the same molecule, in series [3], the “differentiation ability into osteoblasts” value was “efficient in improving the differentiation ability”.
